This note sets out measurements from ChEMBL document CHEMBL1201862, “PubChem BioAssay data set” (2004).

Among the test systems are A498; ACHN; COLO 205; HCT-116; HOP-92; IGROV-1; MDA-MB-231; MDA-N; MOLT-4; Malme-3M; NCI-H23; NCI-H522; NCI/ADR-RES; OVCAR-8; PC-3; RXF 393; T47D; TK-10; UACC-62; UO-31.
Assay in all cases: NCI-60 cell line screen, 48 h

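Where inhibition never reached the appropriate level, the endpoint shown equals the highest concentration tested. Otherwise, values were interpolated linearly from a five-concentration, 48-hour dose response in 96-well plates. The concentration for 50% growth inhibition is given as GI50.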 The source made the active and inactive calls. Cut-off read from the data, not from the text of the source: active = GI50 up to about 1.1 µM and inactive = higher.

In the case of `CC(C)C(C/C=C1\CC(CO)(COC(=O)C(C)(C)C)OC1=O)C(C)C` (stereo not given), the GI50 in the experiment with A498 is 14.1 µM (inactive); with ACHN, 11 µM (inactive); in the experiment with COLO 205 it was 1.64 µM (inactive); in the experiment with HCT-116 it was 10.5 µM (inactive); in the experiment on HOP-92 it was 10.3 µM (inactive); in the experiment on IGROV-1, 14.3 µM (inactive). Also, the GI50 is 5.24 µM (inactive) with MDA-MB-231; 4.97 µM (inactive) with MDA-N; 0.581 µM (active) in the experiment with MOLT-4; 10.7 µM (inactive) with Malme-3M; 4.9 µM (inactive) with NCI-H23; 14.1 µM (inactive) with NCI-H522. For the same molecule, the GI50 with NCI/ADR-RES was 13.6 µM (inactive); in the experiment with OVCAR-8, 14.8 µM (inactive); in the experiment on PC-3 it was 5.05 µM (inactive); with RXF 393, 15.6 µM (inactive); in the experiment on T47D, 15.1 µM (inactive); in the experiment with TK-10 it was 7.23 µM (inactive). The GI50 in the experiment with UACC-62 was 15.2 µM (inactive); with UO-31 it was 5.09 µM (inactive).
For `CCOC(=O)c1nc2ccccc2nc1NCc1cc(OC)c(OC)c(OC)c1`, the GI50 in the experiment on A498 was 23.9 µM (inactive); in the experiment with ACHN, 43.6 µM (inactive); with COLO 205, 38.2 µM (inactive); in the experiment with HCT-116, 36.1 µM (inactive); in the experiment on HOP-92, 34.3 µM (inactive); in the experiment on IGROV-1, 53.1 µM (inactive). Besides, the GI50 with MDA-MB-231 is 27.4 µM (inactive); in the experiment with MDA-N it was 14.8 µM (inactive); in the experiment on MOLT-4 it was 27.2 µM (inactive); with Malme-3M it was 29.6 µM (inactive); in the experiment on NCI-H23 it was > 100 µM (inactive); with NCI-H522 it was 33 µM (inactive). Besides, the GI50 was 15.1 µM (inactive) in the experiment on NCI/ADR-RES; 58.1 µM (inactive) with OVCAR-8; 25.2 µM (inactive) with PC-3; 14.9 µM (inactive) in the experiment on RXF 393; 35.5 µM (inactive) in the experiment on T47D; > 100 µM (inactive) in the experiment with TK-10. In addition, the GI50 was 36.8 µM (inactive) in the experiment with UACC-62 and 24.6 µM (inactive) in the experiment on UO-31.
On to `Fc1ccc(N2C(=S)SC(=N\c3ccccc3)/C2=N/c2ccccc2)cc1`, for which the GI50 in the experiment with A498 is > 100 µM (inactive); in the experiment on ACHN, > 74.5 µM (inactive); in the experiment on COLO 205, > 100 µM (inactive); with HCT-116, 17.5 µM (inactive); in the experiment on HOP-92, > 42.8 µM (inactive); in the experiment on IGROV-1, > 43.8 µM (inactive). Also, the GI50 was > 100 µM (inactive) in the experiment on MDA-MB-231; > 100 µM (inactive) in the experiment on MDA-N; 5.86 µM (inactive) with MOLT-4; > 42.9 µM (inactive) in the experiment on Malme-3M; > 71.9 µM (inactive) in the experiment on NCI-H23; > 100 µM (inactive) in the experiment on NCI-H522. Further, the GI50 is > 92.7 µM (inactive) in the experiment with NCI/ADR-RES; > 100 µM (inactive) with OVCAR-8; > 16.7 µM (inactive) with PC-3; > 100 µM (inactive) in the experiment on RXF 393; 25.5 µM (inactive) with T47D; > 100 µM (inactive) with TK-10. The GI50 was > 92 µM (inactive) with UACC-62 and > 86.1 µM (inactive) in the experiment with UO-31.
For the molecule `CCOC(=O)c1cc2c([N+](=O)[O-])c(N)ccc2s1`, the GI50 in the experiment on A498, with ACHN, in the experiment on COLO 205, with HCT-116, in the experiment on HOP-92 and in the experiment with IGROV-1 was > 100 µM (inactive) throughout. Further, the GI50 in the experiment on MDA-MB-231, in the experiment on MDA-N, in the experiment on MOLT-4, with Malme-3M, in the experiment with NCI-H23 and in the experiment on NCI-H522 was > 100 µM (inactive) each time. Moreover, the GI50 in the experiment with NCI/ADR-RES, in the experiment with OVCAR-8, in the experiment on PC-3, in the experiment on RXF 393, with T47D and with TK-10 was > 100 µM (inactive) each time. The GI50 with UACC-62 and in the experiment on UO-31 was > 100 µM (inactive) each time.
Consider `CCOC(=O)c1cn2c(n1)sc1cc(F)ccc12`, for which the GI50 in the experiment with A498 is 30.8 µM (inactive); in the experiment with ACHN, > 100 µM (inactive); in the experiment with COLO 205, > 100 µM (inactive); with HCT-116, 50.6 µM (inactive); with HOP-92, > 100 µM (inactive); in the experiment on IGROV-1, > 100 µM (inactive). The GI50 is 92.7 µM (inactive) with MDA-MB-231; 19.4 µM (inactive) with MDA-N; > 100 µM (inactive) in the experiment with MOLT-4; > 100 µM (inactive) in the experiment with Malme-3M; > 100 µM (inactive) in the experiment with NCI-H23; > 100 µM (inactive) in the experiment on NCI-H522. The GI50 in the experiment on NCI/ADR-RES was > 100 µM (inactive); with OVCAR-8, > 100 µM (inactive); with PC-3, > 100 µM (inactive); in the experiment with RXF 393 it was 85.1 µM (inactive); in the experiment on T47D, > 100 µM (inactive); in the experiment on TK-10 it was > 100 µM (inactive). Also, the GI50 with UACC-62 and in the experiment with UO-31 was > 100 µM (inactive) in each case.
For the molecule `CS(=O)(=O)O.[Ag]`, the GI50 with A498 was 20.8 µM (inactive); in the experiment on ACHN, 4.53 µM (inactive); with COLO 205 it was 2.16 µM (inactive); with HCT-116, 5.04 µM (inactive); in the experiment with HOP-92, 2.14 µM (inactive); in the experiment with IGROV-1, 1.6 µM (inactive). Further, the GI50 in the experiment on MDA-MB-231 is 21.3 µM (inactive); in the experiment with MDA-N, 7.1 µM (inactive); in the experiment with MOLT-4, 2.32 µM (inactive); in the experiment with Malme-3M it was 1.92 µM (inactive); with NCI-H23, 23.2 µM (inactive); in the experiment with NCI-H522 it was 1.92 µM (inactive). The GI50 in the experiment with NCI/ADR-RES was 29.8 µM (inactive); in the experiment on OVCAR-8, 31.6 µM (inactive); in the experiment with PC-3 it was 14.2 µM (inactive); in the experiment with RXF 393, 18.8 µM (inactive); with T47D, 2.15 µM (inactive); in the experiment on TK-10 it was 2.42 µM (inactive). Moreover, the results for the GI50 in the experiment with UACC-62 and with UO-31 were 17.9 µM (inactive) and 1.78 µM (inactive), respectively.
As for `COc1ccc(NS(=O)(=O)c2ccc3ncn(NS(=O)(=O)c4ccc(I)cc4)c(=O)c3c2)cc1`, the GI50 in the experiment with A498, in the experiment with ACHN, in the experiment with COLO 205, with HCT-116, with HOP-92 and in the experiment with IGROV-1 was > 100 µM (inactive) throughout. The GI50 with MDA-MB-231, with MDA-N, in the experiment with MOLT-4, in the experiment on Malme-3M, with NCI-H23 and in the experiment on NCI-H522 was > 100 µM (inactive) throughout. Also, the GI50 in the experiment on NCI/ADR-RES, with OVCAR-8, in the experiment on PC-3, in the experiment on RXF 393, in the experiment with T47D and with TK-10 was > 100 µM (inactive) in each case. Also, the GI50 with UACC-62 is 95.9 µM (inactive); with UO-31, 43.3 µM (inactive).
`CN(C)Cc1cc(/N=N/c2ccccc2)cc(CN(C)C)c1O`: the GI50 with A498 was 97.3 µM (inactive); with ACHN, > 100 µM (inactive); in the experiment on COLO 205, 20.5 µM (inactive); in the experiment with HCT-116 it was 53.6 µM (inactive); in the experiment with HOP-92, 63.1 µM (inactive); in the experiment on IGROV-1, 85.7 µM (inactive). The GI50 is 71 µM (inactive) with MDA-MB-231; > 100 µM (inactive) in the experiment on MDA-N; 45.8 µM (inactive) with MOLT-4; > 100 µM (inactive) in the experiment on Malme-3M; > 100 µM (inactive) in the experiment with NCI-H23; > 100 µM (inactive) in the experiment on NCI-H522. For the same molecule, the GI50 is 43 µM (inactive) with NCI/ADR-RES; 57.1 µM (inactive) in the experiment on OVCAR-8; > 100 µM (inactive) in the experiment on PC-3; 44.7 µM (inactive) in the experiment with RXF 393; > 100 µM (inactive) in the experiment with T47D; > 100 µM (inactive) with TK-10. The GI50 is > 100 µM (inactive) in the experiment on UACC-62 and 55 µM (inactive) in the experiment on UO-31.
Consider `CCOC(=O)/C(C#N)=C/c1ccc2c(-c3c(OCC)ccc4cc(/C=C(\C#N)C(=O)OCC)ccc34)c(OCC)ccc2c1`, for which the GI50 in the experiment with A498, in the experiment with ACHN, with COLO 205, in the experiment with HCT-116, with HOP-92 and with IGROV-1 was > 100 µM (inactive) each time. Further, the GI50 in the experiment with MDA-MB-231 was 18.5 µM (inactive); in the experiment with MDA-N, > 100 µM (inactive); with MOLT-4, > 100 µM (inactive); in the experiment on Malme-3M it was > 100 µM (inactive); in the experiment with NCI-H23 it was > 100 µM (inactive); in the experiment on NCI-H522 it was > 100 µM (inactive). The GI50 with NCI/ADR-RES, in the experiment with OVCAR-8, in the experiment with PC-3, with RXF 393, with T47D and in the experiment with TK-10 was > 100 µM (inactive) each time. For the same molecule, the GI50 in the experiment on UACC-62 and with UO-31 was > 100 µM (inactive) in each case.
Regarding `COc1cc2nc3n(c(=O)c2cc1OC)-c1ccc([N+](=O)[O-])cc1C3=O`, the GI50 in the experiment with A498 was 17.5 µM (inactive); in the experiment on ACHN, 39.2 µM (inactive); with COLO 205 it was > 100 µM (inactive); with HCT-116, 34.8 µM (inactive); in the experiment with HOP-92 it was > 100 µM (inactive); in the experiment with IGROV-1 it was 26.1 µM (inactive). Further, the GI50 was 46 µM (inactive) in the experiment on MDA-MB-231; 30.5 µM (inactive) with MDA-N; 27.3 µM (inactive) in the experiment with MOLT-4; 34.5 µM (inactive) in the experiment with Malme-3M; 56.6 µM (inactive) in the experiment on NCI-H23; 25.5 µM (inactive) in the experiment on NCI-H522. Further, the GI50 in the experiment on NCI/ADR-RES was 89.5 µM (inactive); in the experiment with OVCAR-8, 57.9 µM (inactive); in the experiment on PC-3, 41.5 µM (inactive); in the experiment on RXF 393 it was 20.3 µM (inactive); in the experiment with T47D it was 0.891 µM (active); with TK-10, 61.7 µM (inactive). For the same molecule, the GI50 is 30.5 µM (inactive) in the experiment on UACC-62 and 11.8 µM (inactive) in the experiment on UO-31.
